Target: T1, IGPS (HisF-HisH heterodimer), glutaminase site in HisH (Thermotoga maritima, UniProt Q9X0C8)
T1 sequence (Q9X0C8 1-201): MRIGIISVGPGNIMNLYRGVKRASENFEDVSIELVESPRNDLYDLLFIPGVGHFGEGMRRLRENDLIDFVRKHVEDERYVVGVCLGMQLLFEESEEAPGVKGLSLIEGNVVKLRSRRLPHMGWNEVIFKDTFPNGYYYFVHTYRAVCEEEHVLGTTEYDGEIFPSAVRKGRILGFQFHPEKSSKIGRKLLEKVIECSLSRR
T1 sequence (Q9X0C6 1-253 partner): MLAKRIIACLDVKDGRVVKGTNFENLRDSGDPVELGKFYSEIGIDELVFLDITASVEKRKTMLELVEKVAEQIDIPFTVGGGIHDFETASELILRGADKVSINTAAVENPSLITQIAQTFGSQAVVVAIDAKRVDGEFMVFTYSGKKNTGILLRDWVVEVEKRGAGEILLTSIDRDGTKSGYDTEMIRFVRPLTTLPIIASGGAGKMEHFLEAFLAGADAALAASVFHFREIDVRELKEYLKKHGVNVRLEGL
Test: covalent modification of HisH C84 followed by DTNB analysis
Type: binding
Settings: 1.5 molar equivalents acivicin, room temperature, HisH active site nucleophile C84

SMILES: N[C@H](C(=O)O)[C@@H]1CC(Cl)=NO1 [acivicin]
- covalent modification of HisH C84 followed by DTNB analysis; NMR: IGPS (HisH-C84) was covalently modified with acivicin

From article PMC3003306 (Structure (London, England : 1993), 2010)
